US9375406B2, “Substituted pyrimidines for mobilizing cells expressing a type 4 CXC chemokine receptor” (TaiGen Biotechnology Co., Ltd., priority 2014, dated 2016)

System: T acute lymphoblastic leukemia (T-ALL) cells
Method: Mononuclear human leukemia cells were prepared using Ficoll gradient centrifugation and cryopreserved in liquid nitrogen. The frozen cells were thawed quickly and washed with PBS to remove the cryopreservation reagent. NOD/SCID mice (Institute of Cellular and Organismic Biology, Academia Sinica) were preconditioned with 200 centigray of total body irradiation at 6-8 weeks of age. The leukemia cells were then transplanted to the preconditioned NOD/SCID mice via tail vein. The resulting leukemia blast cells, i.e., T acute lymphoblastic leukemia (T-ALL) cells and acute myelogenous leukemia (AML) cells, were recovered from spleen and used in experiments as described below.
Mice were monitored for leukemia cell engraftment and dissemination by the appearance of human CD45^+ cells in mouse peripheral blood, which were sampled weekly after the 3rd week of cell transplantation. Peripheral blood samples were taken from the tail vein and red blood cells were lysed in ammonium chloride and resuspensed in Phosphate buffered saline (PBS) plus 2% Fetal Bovine Serum (FBS) before cell staining. […] After immunostaining, cells were washed, suspended in PBS plus 2% FBS, and analyzed using FACS Calibur (BD Biosciences). […]

For `CC[C@]1(O)C[C@H]2CN(CCc3c([nH]c4ccccc34)[C@@](C(=O)OC)(c3cc4c(cc3OC)N(C=O)[C@H]3[C@@](O)(C(=O)OC)[C@H](OC(C)=O)[C@]5(CC)C=CCN6CC[C@]43[C@@H]65)C2)C1` [vincristine], the average survival time (vincristine (0.5 mg/kg ip) alone, days 14, 21, 28) was 73.6 ± 7.1 days and the “time until which CD45+ cells in the peripheral blood were not detected” value (vincristine (0.5 mg/kg) alone) was 8 weeks.
